Results: ChEMBL document CHEMBL5346920, “Development of the "hidden" multi-target-directed ligands by AChE/BuChE for the treatment of Alzheimer's disease” (Eur J Med Chem, 2023)
Activity calls are given as the source filed them. No cut-off for these calls is given here.

Legend:
Homo sapiens = species: Homo sapiens; assay: Selectivity index, ratio of IC50 for inhibition of human recombinant MAO-A expressed in baculovirus-infected BTI cells to IC50 for inhibition of human recombinant MAO-B expressed in baculovirus-infected BTI cells
[1] = Acute toxicity in zebra fish assessed as decrease in swim bladder area at 2.5 ug/ml and measured at 120 hpf by microscopic analysis; set-up: species or system Danio rerio; details: zebrafish; dose 2.5 µg/ml
Acetylcholinesterase [2] = biological target: T1, Acetylcholinesterase (Electrophorus electricus, UniProt O42275); assay: Drug metabolism assessed as electric eel AChE-mediated 3-(4-fluorophenyl)-1-(2-hydroxyphenyl)prop-2-en-1-one formation treated at 150 mmol/L with 0.5U AChE and measured after 9 mins by HPLC analysis; format: ADME; details: 0.15 h
T1 sequence (O42275 whole entry): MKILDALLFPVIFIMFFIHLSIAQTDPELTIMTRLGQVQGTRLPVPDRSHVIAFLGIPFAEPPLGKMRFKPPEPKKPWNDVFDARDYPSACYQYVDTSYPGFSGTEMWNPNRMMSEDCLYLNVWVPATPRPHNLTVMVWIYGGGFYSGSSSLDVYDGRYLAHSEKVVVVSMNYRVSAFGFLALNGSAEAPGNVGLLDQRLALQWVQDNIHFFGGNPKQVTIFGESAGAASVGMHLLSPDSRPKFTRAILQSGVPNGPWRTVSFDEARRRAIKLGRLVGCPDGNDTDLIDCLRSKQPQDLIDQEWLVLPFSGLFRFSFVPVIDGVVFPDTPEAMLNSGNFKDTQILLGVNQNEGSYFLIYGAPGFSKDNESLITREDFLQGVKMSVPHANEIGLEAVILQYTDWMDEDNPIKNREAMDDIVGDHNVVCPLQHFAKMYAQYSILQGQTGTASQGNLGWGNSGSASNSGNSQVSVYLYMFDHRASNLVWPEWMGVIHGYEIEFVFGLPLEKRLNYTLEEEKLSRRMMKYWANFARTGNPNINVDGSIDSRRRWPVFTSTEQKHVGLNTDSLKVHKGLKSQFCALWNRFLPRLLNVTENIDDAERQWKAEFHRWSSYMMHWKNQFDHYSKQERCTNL

[3] = Stability of the compound in rat plasma assessed as parent compound remaining at 10 ug/ml measured after 3 hrs by UPLC-MS/MS analysis; format: ADME, cell-free; details: at 10 µg/mL, read-out: Stability
[4] = Metal chelating activity assessed as compound-Zn2+ complex formation at 37.5 uM incubated for 30 mins in presence of ZnCl2 by UV-Vis spectrometry
Acetylcholinesterase [5] = biological target: T1, Acetylcholinesterase; assay: Drug metabolism assessed as electric eel AChE-mediated 3-(4-fluorophenyl)-1-(2-hydroxyphenyl)prop-2-en-1-one formation treated at 150 mmol/L with 0.001U AChE and measured after 9 mins by HPLC analysis; format: ADME; details: 0.15 h
Cholinesterase [6] = biological target: T2, Cholinesterase (Equus caballus, UniProt P81908); assay: Drug metabolism assessed as equine serum BuChE-mediated 3-(4-fluorophenyl)-1-(2-hydroxyphenyl)prop-2-en-1-one formation with 0.25U BuChE for 9 mins by HPLC analysis; format: ADME, cell-free; details: horse, 0.15 h
T2 sequence (P81908 whole entry): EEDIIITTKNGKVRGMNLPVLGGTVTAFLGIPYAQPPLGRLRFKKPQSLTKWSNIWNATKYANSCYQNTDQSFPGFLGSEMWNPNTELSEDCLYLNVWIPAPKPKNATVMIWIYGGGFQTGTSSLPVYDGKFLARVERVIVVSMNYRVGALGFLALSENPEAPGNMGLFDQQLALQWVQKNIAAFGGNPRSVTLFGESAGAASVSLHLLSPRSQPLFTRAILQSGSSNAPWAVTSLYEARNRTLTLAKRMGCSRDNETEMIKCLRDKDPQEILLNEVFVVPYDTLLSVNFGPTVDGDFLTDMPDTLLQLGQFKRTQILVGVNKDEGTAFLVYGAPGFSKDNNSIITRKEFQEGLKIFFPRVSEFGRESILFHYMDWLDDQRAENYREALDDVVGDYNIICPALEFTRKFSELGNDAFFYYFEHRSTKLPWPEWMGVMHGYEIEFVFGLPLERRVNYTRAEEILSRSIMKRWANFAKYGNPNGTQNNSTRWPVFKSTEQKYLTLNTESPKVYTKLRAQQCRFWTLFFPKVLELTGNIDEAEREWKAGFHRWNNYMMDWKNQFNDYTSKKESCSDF

[7] = Acute toxicity in zebra fish assessed as effect on liver median fluorescence intensity at 0.3125 to 1.25 ug/ml and measured at 120 hpf by microscopic analysis; set-up: species or system Danio rerio; details: zebrafish; dose 0.3125-1.25 µg/ml
[8] = Acute toxicity in zebra fish assessed as ratio of pericardial edema to body weight at 0.15625 to 2.5 ug/ml and measured at 120 hpf by microscopic analysis; set-up: species or system Danio rerio; details: zebrafish; dose 0.15625-2.5 µg/ml
Danio rerio [9] = species: Danio rerio; assay: Neuroprotective activity against AlCl3-induced Alzheimer's disease zebra fish model assessed as distance velocity at 0.0195 ug/ml treated for 24 hrs and measured after 24 hrs under dark environment (reference value: 10.4 cm/min); format: functional; details: dose 0.0195 µg/ml; time 48 hrs
Danio rerio [10] = species: Danio rerio; assay: Neuroprotective activity against AlCl3-induced Alzheimer's disease zebra fish model assessed as increase in ACh content at 0.0049 to 0.078 ug/ml treated for 24 hrs and measured after 24 hrs; format: functional, organism-based; details: dose 0.0049-0.078 µg/ml, time 48.0 hrs
Danio rerio [11] = species: Danio rerio; assay: Antialzheimer activity against AlCl3-induced Alzheimer's disease zebra fish model assessed as total distance moved at 0.0195 ug/ml treated for 24 hrs and measured after 24 hrs under light environment (reference value: 230 cm); format: functional; details: dose 0.0195 µg/ml; time 48 hrs
Danio rerio [12] = species: Danio rerio; assay: Neuroprotective activity against AlCl3-induced Alzheimer's disease zebra fish model assessed as distance velocity at 0.0049 ug/ml treated for 24 hrs and measured after 24 hrs under dark environment (reference value: 10.4 cm/min); format: functional; details: dose 0.0049 µg/ml; time 48 hrs
Acetylcholinesterase [13] = biological target: T1, Acetylcholinesterase; assay: Drug metabolism assessed as electric eel AChE-mediated 3-(4-fluorophenyl)-1-(2-hydroxyphenyl)prop-2-en-1-one formation by measuring decarbamoylation rate constant treated with 0.25U AChE for 9 mins by HPLC analysis; format: ADME; details: 0.15 h
Cholinesterase [14] = biological target: T2, Cholinesterase; assay: Drug metabolism assessed as equine serum BuChE-mediated 3-(4-fluorophenyl)-1-(2-hydroxyphenyl)prop-2-en-1-one formation treated at 150 mmol/L with 0.25U BuChE and measured after 6 mins by HPLC analysis; format: ADME, cell-free; details: horse, 0.1 h
[15] = Metal chelating activity assessed as compound-Fe2+ complex formation at 37.5 uM incubated for 30 mins in presence of FeSO4 by UV-Vis spectrometry
Danio rerio [16] = species: Danio rerio; assay: Antialzheimer activity against AlCl3-induced Alzheimer's disease zebra fish model assessed as distance velocity at 0.0049 ug/ml treated for 24 hrs and measured after 24 hrs under light environment (reference value: 7.7 cm/min); format: functional; details: dose 0.0049 µg/ml; time 48 hrs
Danio rerio [17] = species: Danio rerio; assay: Neuroprotective activity against AlCl3-induced Alzheimer's disease zebra fish model assessed as distance velocity at 0.078 ug/ml treated for 24 hrs and measured after 24 hrs under alternating light dark stimuli conditions (reference value: 9 cm/min); format: functional; details: dose 0.078 µg/ml; time 48 hrs
Danio rerio [18] = species: Danio rerio; assay: Neuroprotective activity against AlCl3-induced Alzheimer's disease zebra fish model assessed as inhibition of AlCl3-induced AChE activity at 0.0049 to 0.078 ug/ml treated for 24 hrs and measured after 24 hrs; format: functional, organism-based; details: dose 0.0049-0.078 µg/ml, time 48.0 hrs
Danio rerio [19] = species: Danio rerio; assay: Antialzheimer activity against AlCl3-induced Alzheimer's disease zebra fish model assessed as total distance moved at 0.078 ug/ml treated for 24 hrs and measured after 24 hrs under alternating light dark stimuli conditions (reference value: 543 cm); format: functional; details: dose 0.078 µg/ml; time 48 hrs
Danio rerio [20] = species: Danio rerio; assay: Neuroprotective activity against AlCl3-induced Alzheimer's disease zebra fish model assessed as distance velocity at 0.078 ug/ml treated for 24 hrs and measured after 24 hrs under dark environment (reference value: 10.4 cm/min); format: functional; details: dose 0.078 µg/ml; time 48 hrs
[21] = Permeability of the compound at 100 ug/ml incubated for 18 hrs by PAMPA assay; format: ADME; details: dose 100 µg/ml, read-out: permeability
[22] = biological target: Acetylcholinesterase (Electrophorus electricus) (UniProt O42275); assay: Reversible inhibition of electric eel AChE assessed as enzyme activity using acetylthiocholine iodide as substrate measured after dilution to 0.1XIC50 for 120 mins by Ellman's method; set-up: scale not given: the % may be the effect or the level left
Sequence of Acetylcholinesterase (Electrophorus electricus) (O42275 24-633 limits assumed): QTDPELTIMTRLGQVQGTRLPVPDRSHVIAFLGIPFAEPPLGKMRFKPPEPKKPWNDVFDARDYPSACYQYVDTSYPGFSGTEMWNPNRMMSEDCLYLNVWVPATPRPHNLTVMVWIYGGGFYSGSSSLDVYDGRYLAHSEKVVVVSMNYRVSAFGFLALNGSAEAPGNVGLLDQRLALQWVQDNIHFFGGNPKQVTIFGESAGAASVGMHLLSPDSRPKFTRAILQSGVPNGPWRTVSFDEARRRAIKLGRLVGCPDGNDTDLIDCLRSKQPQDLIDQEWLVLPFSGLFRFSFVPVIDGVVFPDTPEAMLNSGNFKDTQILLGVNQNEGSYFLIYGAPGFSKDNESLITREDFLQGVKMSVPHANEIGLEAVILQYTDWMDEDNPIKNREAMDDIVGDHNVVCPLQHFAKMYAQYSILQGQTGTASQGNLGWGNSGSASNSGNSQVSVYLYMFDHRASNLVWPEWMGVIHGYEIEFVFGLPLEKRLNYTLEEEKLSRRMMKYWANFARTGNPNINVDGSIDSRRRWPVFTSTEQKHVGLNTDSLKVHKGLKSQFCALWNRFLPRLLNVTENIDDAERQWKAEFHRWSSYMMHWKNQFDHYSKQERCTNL

Danio rerio [23] = species: Danio rerio; assay: Neuroprotective activity against AlCl3-induced Alzheimer's disease zebra fish model assessed as distance velocity at 0.0195 ug/ml treated for 24 hrs and measured after 24 hrs under alternating light dark stimuli conditions (reference value: 9 cm/min); format: functional; details: dose 0.0195 µg/ml; time 48 hrs
Danio rerio [24] = species: Danio rerio; assay: Antialzheimer activity against AlCl3-induced Alzheimer's disease zebra fish model assessed as total distance moved at 0.078 ug/ml treated for 24 hrs and measured after 24 hrs under dark environment (reference value: 312 cm); format: functional; details: dose 0.078 µg/ml; time 48 hrs
Danio rerio [25] = species: Danio rerio; assay: Antialzheimer activity against AlCl3-induced Alzheimer's disease zebra fish model assessed as improvement in total distance velocity at 0.0195 ug/ml treated for 24 hrs and measured after 24 hrs; format: functional, organism-based; details: dose 0.0195 µg/ml, time 48.0 hrs
[26] = Acute toxicity in zebra fish assessed as maximum non-lethal dose; set-up: species or system Danio rerio; details: zebrafish
BV-2 = assay: Anti-inflammatory activity against LPS-stimulated mouse BV-2 cells assessed as inhibition of LPS-induced IL-6 production incubated for 24 hrs in presence of LPS; format: functional, cell-based; details: dose 1-9 µM
PC-12 [27] = assay: Neuroprotective activity against Amyloid beta(25 to 35)-induced cell injury in rat PC12 cells assessed as cell viability at 5 uM pretreated for 2 hrs followed by incubation with Abeta(25 to 35) for 24 hrs by CCK-8 assay (reference value: 41 to 58.6%); format: functional; details: time 26 hrs, read-out: Activity
PC-12 [28] = assay: Cytotoxicity against rat PC-12 cells assessed as cell viability at 40 uM by CCK-8 assay; format: toxicity, cell-based; details: pc-12, 40 µM

CCN(C)C(=O)Oc1ccccc1C(=O)/C=C/c1ccc(F)cc1
Ratio IC50 (Homo sapiens): 20.1
Activity [1]: Toxic
Drug metabolism (Acetylcholinesterase [2]): 24.87 mmol/L
remaining at 3 h, 10 ug/ml [3]: 99.3%
Activity [4]: inactive
Drug metabolism (Acetylcholinesterase [5]): 5.56 mmol/L
Km (Cholinesterase [6]): 113 µM
Activity [7]: Non-Toxic
Activity [8]: Non-Toxic
Activity (Danio rerio [9]): 19.2 cm/min
Activity (Danio rerio [10]): Active
Activity (Danio rerio [11]): 344 cm
Activity (Danio rerio [12]): 13 cm/min
K (Acetylcholinesterase [13]): 5.2 M⁻¹ s⁻¹
Drug metabolism (Cholinesterase [14]): 14.62 mmol/L
Activity [15]: inactive
Activity (Danio rerio [16]): 12.4 cm/min
Activity (Danio rerio [17]): 12.7 cm/min
Activity (Danio rerio [18]): Active
Activity (Danio rerio [19]): 763 cm
Activity (Danio rerio [20]): 17.9 cm/min
Papp at 18 h, 100 ug/ml [21]: 16.8 ×10⁻⁶ cm/s
Activity [22]: 88.7%
Activity (Danio rerio [23]): 15.3 cm/min
Activity (Danio rerio [24]): 537 cm
Activity (Danio rerio [25]): Active
Activity [26]: 2.5 µg/mL
Activity (BV-2): Dose-Dependent Effect
viability at 5 µM (PC-12 [27]): 70.9%
Activity (PC-12 [28]): Non-Toxic
